# Source: US10420836B2, “Methods of immunizing a subject and compositions related thereto” (priority 2015, dated 2019)
# Read-outs that look alike come from different tables or passages of the source.
# Legend:
# [1] = test system: A/Victoria/210/2009 subunit influenza vaccine; type: in vivo, mice; settings: after intradermal vaccination with A/Victoria/210/2009 plus adjuvant
# [2] = test system: influenza virus A/Udorn/1972 (H3N2); type: in vivo, mice; settings: for survival: adjuvant co-administered intradermally with 1 μg HA A/Victoria/210/2009 subunit vaccine; for body weight loss after challenge / signs of disease after challenge: adjuvant with vaccine; for body weight loss after challenge: compared to the other vaccinated groups; for protective immune responses / protective immunity to influenza: used as adjuvant for intradermal influenza vaccination
# caspase-1 = experiment: Preliminary cell-signaling data (inflammasome / caspase-1 activation)
# [3] = test system: primary human keratinocytes; type: cell-based; settings: primary human keratinocytes (unpublished)
# [4] = Observation for adverse effects after adjuvanted skin vaccination; type: in vivo; settings: low doses used for skin vaccination; four months post-adjuvanted vaccination
# Source text: This modification may improve antigen presentation resulting in protective immunity. […] See Manoury. Proteases: essential actors in processing antigens and intracellular toll-like receptors. Frontiers in immunology 4, 299, (2013). Fullerene is considered as nanoparticle due to its structure that can recruit cells following skin immunization. The toxicity of fullerenes has been reported in Zhang et al., Endocytic mechanisms and toxicity of a functionalized fullerene in human cells. Toxicology letters 191, 149-157, (2009). […] Vaccine adjuvant and vaccine formulations of fullerene derivatives are reported in CN103495164.
smiles,measurement,setting,value
"O=C(Nc1cc(C(F)(F)F)cc(C(F)(F)F)c1)c1cc(Cl)ccc1O [IMD 0354, N-(3,5-bis-trifluoromethyl-phenyl)-5-chloro-2-hydroxy-benzamide]",Serum IgG2a,[1],increased
same,survival,[2]; 4×LD50 A/Udorn/1972 challenge,100%
same,body weight loss after challenge,[2],minimal body weight loss
same,protective immune responses / protective immunity to influenza,[2],improved protective immunity to influenza
CC(C)Cn1cnc2c(N)nc3ccccc3c21 [Imiquimod],signs of disease after challenge,[2],fewer signs of disease
same,body weight loss after challenge,[2],lowest body weight loss
same,longevity of immune responses,"[2]; combined with vaccine, […]",improved
"O=C1c2c(O)cccc2Cc2cccc(O)c21 [anthralin, 1,8-dihydroxy-9,10-dihydroanthracen-9-one]",caspase-1 activation,caspase-1,not activated
same,survival,[2]; 4×LD50 A/Udorn/1972 challenge,80%
same,signs of disease after challenge,[2],fewer signs of disease
same,survival rate,"[2]; at three different doses tested (11.9, 119 and 1190 nanomoles) with vaccine, infection with A/Udorn 1972",≥ 80%
same,protective immune responses / protective immunity to influenza,[2],induces protective immune responses
same,IL-1 beta and TNF-α production,[3],large amounts
c12c3c4c5c1c1c6c7c2c2c8c3c3c9c4c4c%10c5c5c1c1c6c6c%11c7c2c2c7c8c3c3c8c9c4c4c9c%10c5c5c1c1c6c6c%11c2c2c7c3c3c8c4c4c9c5c1c1c6c2c3c41 [fullerene],adverse effects,[4],no adverse effects
same,survival,[2]; […],80%
same,protective immune responses / protective immunity to influenza,[2],improved protective immune responses
